The structures appear in SMILES notation.

3 molecules from publication PMC6271531 (2014) can be followed below.

For assay [1], the system named is single stranded oligonucleotide d(CGCGAATTCGCG) (ss) (DNA, single strand) CGCGAATTCGCG
Description: ESI-IM-MS, negative mode. The conditions noted are these: NH4+ (100 mM ammonium acetate); 20% methanol, pH 6.7; 1:10 molar ratio (170 µM compound); very low abundance, none at 1:1.

Assay [2] deals with d(CGCGAATTCGCG)2, Dickerson DNA duplex (ds) (DNA, duplex) CGCGAATTCGCG
Nature of the assay: ESI-MS, negative mode. The conditions noted are these: NH4+ (100 mM ammonium acetate); pH 6.7; equimolar; reference ligand, value not shown.

Regarding `NCCNC(=O)CCN(CCC(=O)NCCN)CCC(=O)NCCN`, the binding entry in assay [1] is reported as “weak”.
For the molecule `N=C(N)c1ccc(N=NNc2ccc(C(=N)N)cc2)cc1`, in assay [2], the binding result is listed as “yes”.
On to `O=C(CCN(CCC(=O)NCCNC(=S)Nc1ccccc1)CCC(=O)NCCNC(=S)Nc1ccccc1)NCCNC(=S)Nc1ccccc1`, for which, in assay [1], the binding entry is given as “weak”.
